In patent US20110189174A1, “COMPOSITIONS AND METHODS FOR TREATING, REDUCING, AMELIORATING, ALLEVIATING, OR INHIBITING PROGRESSION OF, PATHOGENIC OCULAR NEOVASCULARIZATION” (priority 2010, published 2011):
Values joined by “and” are separate entries in the source; they are usually repeats but may differ in a detail not shown here. Equal values may be shown once. Marks after values point to notes of the source that are not given here.

Columns and labels:
[1] = tested on: laser-induced CNV in monkeys; experiment: Laser-induced choroidal neovascularization in monkeys, fluorescein angiography lesion grading; assay type: in vivo, cynomolgus monkeys (Macaca fascicularis); conditions: for Incidence of CNV lesions, Lesion Grade I (% Total) / Incidence of CNV lesions, Lesion Grade II (% Total) / Incidence of CNV lesions, Lesion Grade III (% Total) / Incidence of CNV lesions, Lesion Grade IV (% Total): intravitreal, both eyes, days 1 and 15, 1.5 mg/eye (Lucentis 0.5 mg/eye); for Overall grade IV lesions versus vehicle control group: all time points together, Chi square test; for Incidence of grade IV lesions compared to vehicle control: days 22, 29 and 37, 1.5 mg/eye in oil formulation; for Overall Grade IV lesions (%): days 22, 29 and 37 summed, 1.5 mg/eye intravitreal days 1 and 15
Experimental: Study was performed in three phases. In phases Ia and Ib, the behavior of the suspension in aqueous (Ia) and oil (Ib) formulations, and multiple dosing regimens as well as any adverse effect due to multiple dosing at 3 mg/eye (Ia) or 1.5 (Ib) were investigated. In phase II test articles were administered twice during the study period on days 1 and 15. Eyes were examined with an indirect ophthalmoscope and fundus camera.
Adult male cynomolgus monkeys (Macaca fascicularis) age 2-7 years old were used to test the efficacy of BOL-303050-X, BOL-303054-X and BOL-303055-X. Lucentis® (ranibizumab) was used as historic control.
Both eyes of 46 monkeys were examined at baseline and then 42 animals were randomized into 5 groups. On Phase II Day 8 of Dosing, the animals were anesthetized with ketamine and dexmedetomidine and the macula of each eye of the animals in Groups 1 through […] underwent laser treatment by a retinal surgeon with a 532 nm diode green laser (OcuLight GL, IRIDEX Corp. Inc., Mountain View, Calif.) using a slit lamp delivery system and a Kaufman-Wallow (Ocular Instruments Inc, Bellevue, Wash.) plano fundus contact lens with Gonak (2.5%) as the coupling agent. Nine laser spot areas were symmetrically placed in the macula of each eye. The laser parameters included a 75 micron spot size and 0.1 second duration. The power setting used was assessed by the ability to produce a blister and a small hemorrhage. […] For areas not adjacent to the fovea, the initial power setting was 500 mW; if a second spot was placed, the power was set to 650 mW. For the area adjacent to the fovea the power settings were 400 mW (initial treatment) and 550 mW (second treatment). At the discretion of the retinal surgeon, power settings were adjusted based on observations at the time of laser. Power setting used for each spot was documented as well as number of burns per spot and whether hemorrhage occurred.
(§1) Once the phase Ib study was completed, and it was established that the drug suspension in oil would not interfere with either laser administration, evaluation of CNV or cause adverse effects, phase II was initiated. On days 1, and 15 both eyes of monkeys received 50 μL of Lucentis (0.5 mg/eye), vehicle (0 mg/eye), BOL-303050-X (1.5 mg/eye), BOL-303054-X (1.5 mg/eye) or BOL-303055-X (1.5 mg/eye) (Table 2). Intravitreous injection was performed for each by eye aiming towards mid-vitreous body. Dosing in the right eye was alternated for successive doses (as applicable) at approximately the 11 o'clock and 10 o'clock positions. Dosing in the left eye was alternated for successive doses (as applicable) from approximately the 1 o'clock and 2 o'clock positions.
Animals were anesthetized with ketamine and dexmedetomidine. A topical anesthetic (0.5% proparacaine) was instilled in each eye before dose administration. A wire speculum was used to retract the eyelids. The eyes were cleaned with a 2.5% povidone iodine solution and then rinsed with sterile saline. Each animal was dosed using 1 cc tuberculin syringes and 30 gauge needles.
FA was performed at baseline, on days 22, 29 and 37 (approximately 14, 21 and 28 days post-laser). Digital ocular photographs were taken in conjunction with FA. The FA procedure is well known by people skilled in the art of ophthalmology.
Evaluation of FA was done according to the following grading system for evidence of excessive permeability (fluorescein leakage) or any other abnormalities.
Grade IV lesions are considered to be clinically significant as these most closely resemble the active forms of classical CNV seen in various human retinal disorders, including age-related macular degeneration. Comparison of the incidence of Grade IV lesions between treatment groups was evaluated.
Grade IV lesions were analyzed using either Fisher's exact probability test (2-Tail) or Chi square test (χ2). […]

[2] = tested on: human retinal endothelial cells (HREC); experiment: Testing 6: VEGF-induced HREC proliferation (MTS assay), BOL-303055-X and Avastin alone and in combination; assay type: cell-based; conditions: for Inhibition of VEGF-induced HREC proliferation, agent alone: Avastin 3-300 ng/ml (significant from 30 ng/ml)
Experimental: HREC were first cultured overnight in a 96-well plate coated with fibronectin. The next day, cells were serum-starved for 2 hours. The medium containing different agents as shown in Table 12 was pre-incubated for 1 hour before being added into appropriate wells. The cells were further cultured at 37° C., 5% CO2, and 95% humidity for another 3 days. After that, cell proliferation was estimated by the MTS assay—a cell metabolic activity assay (disclosed hereinabove).
A 96-well plate was coated with human fibronectin (10 μg/ml) for 5 h at 37° C., 5% CO2, and 95% humidity. HREC were collected from flasks by EDTA-trypsin treatment and re-suspended in 10% FBS CS-C medium at 18,000 cells/ml. Cells (200 μl/well) were added to the plate and cultured for overnight at 37° C., 5% CO2, and 95% humidity. Next day, medium was aspirated and serum-free medium was added to wells at 200 μl/well for 2 hours.
Normal IgG was also added in such a way that all groups contained the same amount of IgG protein. All medium solutions were incubated for 1 h at 37° C., 5% CO2, and 95% humidity. After carefully aspirating the medium from cells, 200 μl of the medium containing different agents was added into appropriate wells. The cells were further cultured for 3 days.
At the end of incubation, the medium was carefully aspirated from cells and 120 μl of MTS working solution was added into all wells. The plate was incubated at 37° C., 5% CO2, and 95% humidity for 1 hour and then read by a plate reader at 490 nm wavelength.
Median optical density (OD) was generated from different groups. Data were expressed as mean±SEM of the OD values. Statistical analysis was performed using a three-way ANOVA followed by the contrast procedure on log-transformed data, and P<0.05 was considered statistically significant. […] All the data from the individual wells were fitted to a re-parameterized four-parameter logistic equation to obtain IC50 using similar methodology as that previously described and utilizing the statistical analysis software JMP (SAS Institute, Cary, N.C.).

[3] = Intraocular pressure (Tono-pen) in monkeys after intravitreal injection; assay type: in vivo, cynomolgus monkeys (Macaca fascicularis)
Experimental: as §1
IOP was done in conjunction with the OE using a Tono-pen on anesthetized monkeys on days 1, 3, 7, 15, and 31 of dosing Phase II and on the day of scheduled sacrifice (day 38).
Grade IV lesions were analyzed using either Fisher's exact probability test (2-Tail) or Chi square test (χ2). For the analysis of delta changes in TOP a two-way ANOVA with repeated measures followed by the contrast procedure was performed on Box-Cox transformed data if needed. Unless indicated otherwise, data are presented as means±SEM unless stated otherwise. P<0.05 was considered statistically significant.

[4] = rat, in vivo
Experimental: The anterior segment of the eye was examined using a slit-lamp biomicroscopy for excluding any animals with abnormalities that might interfere with the study. Fundus photography and fluorescein angiography (FA) were performed to document the health of the retina and the ocular circulation using a TRC 50EX fundus camera (Topcon). For FA, 10% sodium fluorescein was injected intravenously (50 mg/kg of body weight) through the tail vein or the vein under the incisor before the procedure.
Immediately after placement of laser photocoagulation, the experimental eyes received an intravitreal injection of either a compound or a vehicle as described in Table 5. Following the disinfection of ocular surface with 5% betadine and 0.9% saline solutions, the injections were performed with aid of a surgical microscope using 0.3 mL syringes with a 31-gauge ½-inch long needle (Ultra-Fine II™ Insulin syringe, BD, Franklin Lakes, N.J.).
Two weeks after photocoagulation, all rats were examined under anesthesia and pupil dilation with slit-lamp biomicroscopy, fundus photography and FA as described in the baseline examination.

[5] = BOL-303055-X 1 nM, VEGF 10 ng/ml

Row | Molecule | Incidence of CNV lesions, Lesion Grade I (% Total) ([1]; Day 22) | Incidence of CNV lesions, Lesion Grade II (% Total) ([1]; Day 22) | Incidence of CNV lesions, Lesion Grade III (% Total) ([1]; Day 22) | Incidence of CNV lesions, Lesion Grade IV (% Total) ([1]; Day 22) | Incidence of CNV lesions, Lesion Grade I (% Total) ([1]; Day 29) | Incidence of CNV lesions, Lesion Grade II (% Total) ([1]; Day 29) | Incidence of CNV lesions, Lesion Grade III (% Total) ([1]; Day 29) | Incidence of CNV lesions, Lesion Grade IV (% Total) ([1]; Day 29) | Incidence of CNV lesions, Lesion Grade I (% Total) ([1]; Day 37) | Incidence of CNV lesions, Lesion Grade II (% Total) ([1]; Day 37) | Incidence of CNV lesions, Lesion Grade III (% Total) ([1]; Day 37) | Incidence of CNV lesions, Lesion Grade IV (% Total) ([1]; Day 37) | Overall grade IV lesions versus vehicle control group [1] | Incidence of grade IV lesions compared to vehicle control [1] | Overall Grade IV lesions (%) [1] | Inhibition of VEGF-induced HREC proliferation, agent alone [2, 5] | other results
1 | COc1c(NC[C@H](NC(=O)OCc2ccccc2)C(=O)O)ncnc1N1CCC(c2ccc3c(n2)NCCC3)CC1 [BOL-303054-X] | 79:133 (59.40) % | 1:133 (0.75) % | 8:133 (6.01) % | 45:133 (33.83) % | 80:133 (60.15) % | 5:133 (3.76) % | 2:133 (1.50) % | 46:133 (34.59) % | 83:136 (61.03) % | 6:136 (4.41) % | 5:136 (3.68) % | 41:136 (30.15) % | not statistically significant | higher incidences of grade IV lesions compared to the vehicle control | (32.84) % | – | –
2 | CCc1nc(NC[C@H](NC(=O)OCc2ccccc2)C(=O)O)c(C)c(N2CCC(c3ccc4c(n3)NCCC4)CC2)n1 [BOL-303055-X] | 73:162 (45.06) % | 6:162 (3.7) % | 6:162 (3.70) % | 47.53% and 77:162 (47.53) % | 75:162 (46.3) % | 5:162 (3.09) % | 12:162 (7.41) % | 43.21% and 70:162 (43.21) % | 80:162 (49.38) % | 7:162 (4.32) % | 5:162 (3.68) % | 44.44% and 72:162 (44.44) % | significantly increased | higher incidences of grade IV lesions compared to the vehicle control | (45.06)* % | reduced VEGF-induced proliferation in a statistically significant manner | HREC proliferation under basal conditions ([2]; 1 nM, no VEGF): significantly inhibited; Enhancement of Avastin potency ([2]; BOL-303055-X 1 nM): approximately 3.8 fold; Combination effect with Avastin on VEGF-induced HREC proliferation (synergistic/additive) ([2]; BOL-303055-X 1 nM, Avastin 10 to 100 ng/ml): synergistic effects; IOP change compared with baseline ([3]; right eyes day 15, left eyes days 3 and 15): reduced IOP; Increase in IOP compared to baseline ([3]; right eyes, day 31, 1.5 mg/eye intravitreal days 1 and 15): 4 mm Hg
3 | bevacizumab [Avastin, reference compound] | – | – | – | – | – | – | – | – | – | – | – | – | – | – | – | dose-dependent inhibition | IC50 ± SE of Avastin plus BOL-303055-X on inhibiting VEGF-induced proliferation of HREC ([2]; VEGF 10 ng/ml, BOL-303055-X 1 nM, estimated): 0.016 µg/mL; Intraocular inflammation and retinal vascular congestion [4]: no intraocular inflammation and retinal vascular congestion was recorded
4 | COc1ccc(S(=O)(=O)N[C@@H](CNc2nc(C)nc(N3CCC(c4ccc5c(n4)NCCC5)CC3)c2C)C(=O)O)cc1 [BOL-303050-X] | 126:148 (85.14) % | 12:148 (8.11) % | 4:148 (2.70) % | 4.05% and 6:148 (4.05) % | 132:150 (88.00) % | 11:150 (7.33) % | 3:150 (2.00) % | 2.67% and 4:150 (2.67) % | 136:162 (83.95) % | 15:162 (9.26) % | 8:162 (4.94) % | 1.85% and 3:162 (1.85) % | significantly reduced | reduced compared to vehicle-treated eyes | (2.83)* % | – | Reduction of IOP versus baseline ([3]; day 38 only, 1.5 mg/eye intravitreal days 1 and 15): 4 mm Hg
